Test results from publication PMC9767416, “Discovery of small molecule mechanistic target of rapamycin inhibitors as anti-aging and anti-cancer therapeutics” (Frontiers in Aging Neuroscience, 2022).
≈ marks a conversion by molar mass, not a printed value. Where two headings read alike, the source gives them in different places. Marks after values point to notes of the source that are not given here.

Key:
[1] = Solubility by nephelometry (water, buffer pH 7.4); assay type: physicochemical; details: for solubility at 30 s: medium not told apart (water and buffer pH 7.4)
Description: Compounds’ solubility was measured by the NEPHELOstar microplate instrument (BMG Labtech, Offenburg, Germany). Stock solutions were prepared by dissolving the tested compounds in ultrapure water or sodium phosphate buffer (pH 7.4) to obtain a concentration of 160 and 1,000 μg/mL. Each stock solution was sonicated at full power by Hielscher UP100H needle ultrasonic processor (Teltow, Germany) before loading into NEPHELOstar instrument injector A. Ultrapure water or sodium phosphate buffer was loaded into injector B. Compound was diluted in 48 wells in 0–160 or 0–1,000 μg/mL range and subsequently shook for 30 s. Each well was scanned with 80% laser power in matrix 3 × 3, beam width 2 mm, and obtained data were evaluated in GraphPad Prism 7.03 (GraphPad Software, San Diego, CA, USA) using segmental linear regression.

[2] = Shake-flask partition coefficient logP and distribution coefficient logD (pH 7.4); assay type: physicochemical; details: for logD: n-octanol/sodium phosphate buffer pH 7.4; for logP: n-octanol/water
Description: Before the initiation of the intended experiments, all solvents were mutually saturated at 21°C. […] For saturation, large stock bottles containing n-octanol and 12% of water/buffer or water/buffer and 12% of n-octanol were shaken for 30 mins on a mechanical shaker and subsequently left to stand on the bench overnight until the phases separated. Approximately 0.50 mg of tested substance was added to the test vessels alongside with 1:1 volume ratio of saturated solvents (250 μL). The test vessels were shaken on the mechanical shaker (Multi Reax, Heidolph Instruments, Schwabach, Germany) for 30 min at the highest speed and then centrifuged for phase separation (16.873 × g for 5 min; Eppendorf 5418 Microcentrifuge, Prague, Czech Republic). Both organic and aqueous phases were sampled for LC-MS analysis. UHPLC-DAD-MS (UHPLC Infinity II 1290, detection by DAD and QqQ 6470; Agilent Technologies, CA, USA; separation on Arion C18 polar column 100 × 2.1 mm, 2.1 μm; Chromservis, Czech Republic) was used for determination of the exact concentration of tested substances. The total quantity of substance (in both phases) was used for logP/logD values calculation.

[3] = CNS MPO desirability score
Description: ACDLAbs PhysChem Suite 14.0 software (Advanced Chemistry Development, Inc., Toronto, ON, Canada) was used for the calculation of Mw, tPSA, and HBD values. The CNS MPO score calculation method was described by [Wager et al. (2016)].
Central nervous system multiparameter optimization desirability score was calculated as described by [Wager et al. (2016)], utilizing all collected experimental and calculated data. This scoring tool was set on ranges of desirable property space and linear transformational functions with values between 0 and 1 (defined as T0 for each property). Rating each parameter equally, the collective score ranges from 0 to 6, while a score higher than 4 is desirable ([Rankovic, 2015]).

[4] = Dissociation constants by spectrophotometric titration; assay type: physicochemical; details: 20°C; for pKa: ultrapure water
Description: The spectrophotometric titration was used for dissociation constants’ determination, utilizing spectrophotometer Agilent Cary-60 (Agilent Technologies, CA, USA), pH meter WTW InoLab_IDS Multi 9430 (WTW, Czech Republic), and pH electrode SenTix® Mic (WTW, Czech Republic). Data were analyzed by GraphPadPrism 8.0 software (GraphPad Software, CA, USA). The analyzed samples were prepared by adding 20 μL of compound stock solution (2 mg/mL) and 20 μL of 0.1 M hydrochloric acid into the cuvette with ultrapure water (total volume 3.5 mL). The samples were titrated by 0.1 M sodium hydroxide at 20°C while acquiring absorption spectra (190–500 nm) at different pH values. Absorbance at the chosen wavelength was plotted as a function of pH. The inflection point in the given plot was used for pKa value determination.

BJ, RPE-1 and U373 cells = test: Crystal violet and resazurin proliferation screen in proliferating cells; assay type: cell-based, human; details: RPE-1, U373, 0, 10, 50, 80, 100 μM, 24 h
Description: All cell lines used in the study were obtained from the American Type Culture Collection (ATCC, Manassas, VA, USA). Human telomerase-immortalized retinal pigment epithelial cells RPE-1, glioblastoma U-87 MG, glioblastoma U373MG, glioblastoma T98G, glioblastoma A-172, breast adenocarcinoma MDA-MB-231, prostate carcinoma DU-145, and non-small cell lung cancer NCI-H1299 cell lines were cultured in Dulbecco’s modified Eagle’s medium (DMEM, Thermo Fisher Scientific, Waltham, MA, USA) with high glucose (4.5 g/L). Primary human skin BJ fibroblasts were cultured in Dulbecco’s modified Eagle’s medium (DMEM, Thermo Fisher Scientific, Waltham, MA, USA) with low glucose (1 g/L). Both cell culture media were supplemented with 10% fetal bovine serum (FBS, Gibco/Thermo Fisher Scientific) and non-essential amino acids (NEAA), 100 units/mL of penicillin, and 100 μg/mL of streptomycin (Sigma-Aldrich). Cells were kept at 37°C under a 5% CO2 atmosphere and 95% humidity.
(§1) Twenty-four hours before treatment, cells were plated in 96-well plates at densities of 2,850 cells per well for senescent RPE-1 (IR-RPE-1), 3,350 cells per well for proliferating RPE-1 and senescent BJ (DIS-BJ), and 5,000 cells per well for U373, T98, A172, U87, TMZ-U87, and proliferating BJ cells.
(§2) For the crystal violet assay, the cells were washed twice with 150 μL PBS and stained with 30 μL 0.5% (w/v) crystal violet in 20% methanol for 15 mins. Next, the plates were washed five times with ddH2O and left to dry overnight. Crystal violet was solubilized with 75 μL 0.2% Triton X-100 (Sigma) in PBS for 15 mins. The absorbance was read at 595 nm using a microplate reader (Envision, PerkinElmer, Waltham, MA, USA). The absorbance of crystal violet in treated cells was expressed as a percentage of absorbance in untreated cells. Each condition was measured at least in triplicate.
(§3) For the resazurin assay, 200 μL of the culture medium of each well was exchanged for 100 μL of resazurin (stock solution 30 mg/mL; Sigma, St. Louis, MO, USA) diluted 10 times in the culture medium, and the cells were incubated at 37°C for 1–3 h. Reading of fluorescence was done using a microplate reader (PerkinElmer, Waltham, MA, USA). Absolute values of fluorescence were related to the values of untreated cells. Each condition was measured at least in triplicate.

[5] = test system: IR-induced senescent RPE-1 cells; test: Crystal violet and resazurin assays in IR-induced senescent RPE-1; assay type: cell-based, human; details: γ-irradiated RPE-1; crystal violet readout only
Description: To obtain ionizing radiation (IR)-induced senescent cells, proliferating RPE-1 cells were exposed to a single dose of X-rays (20 Gy) using Pantak HF160 (Gulmay, Surrey, UK) X-ray instrument equipped with Pantak Seifert HF320 generator, MXR-161 X-ray tube (Comet AG, Flamatt, Switzerland), and an aluminum filter using current 1–10 mA. After irradiation, the cells were cultured for an additional 7 days until the development of the senescent phenotype ([Salovska et al., 2022]). To induce docetaxel-induced senescence (DIS), BJ cells were exposed to 5 nM docetaxel for 7 days, as described previously ([Sapega et al., 2018]). To prepare temozolomide (TMZ)-induced senescence, U87 cells were exposed to 100 μM TMZ for 14 days.
as §1, §2
as §3, with “triplicate. […]” for “triplicate.”

RPE-1 cells = test: Time-lapse microscopy (Incucyte) of proliferating RPE-1; assay type: cell-based, human; details: higher concentrations 80–100 μM, 72 h
Description: (§4) For auto-monitoring of cells, Incucyte SX1 Live-Cell Analysis System (Sartorius, Göttingen, Germany), located in an incubator maintained at 37°C under a 5% CO2 atmosphere and 95% humidity, was utilized. The images (1,408 × 1,040 pixels at 1.24 microns/pixel) were acquired using a 10× objective lens in phase contrast, red fluorescence (excitation: 585 ± 20 nm, emission: 635 [625, 705] nm, acquisition time: 100 ms) channels every 60 min during 72 h. The first image was acquired 30 min after adding compounds. The images were processed to measure cell confluence using Incucyte software (version 2022A). Annexin V – Dy647, Apronex (diluted 1:1,000) was used for apoptotic cell staining.

U373 cells = test: Time-lapse microscopy (Incucyte) of U373; assay type: cell-based, human; details: 100 μM, 72 h
Description: as §4

[6] = aqueous buffer, sodium phosphate buffer pH 7.4, nephelometry, read-out: Sol. (buffer 7.4)
[7] = ultrapure water, nephelometry, read-out: Sol. (H2O)
[8] = from experimental and calculated data, method of Wager et al. (2016), scale 0-6
[9] = n-octanol/sodium phosphate buffer, pH 7.4, shake-flask, read-out: logD
[10] = sodium phosphate buffer pH 7.4, nephelometry

Row | Compound | solubility kinetic at 30 s [1, 6] [µg/mL] | solubility kinetic at 30 s [1, 7] [µg/mL] | logSH2O ([1]; water) | MPO (CNS MPO score) [3, 8] | pKa ([4]; read-out: pKa1) | melting point [°C] | logSpH 7.4 ([1]; buffer pH 7.4) | solubility at 30 s [1] [µg/mL] | logD [2, 9] | logP ([2]; shake-flask, read-out: logP) | effect on the readout of crystal violet and resazurin assays (BJ, RPE-1 and U373 cells) | further results
1 | Br.Br.c1ccc2[nH]c(NC3CCNCC3)nc2c1 [Compound 2, N-(piperidin-4-yl)-1H-benzo[d]imidazol-2-amine dihydrobromide] | 299 | > 1000 | >−2.58 | 4.9 |  | 275 to 277 | −3.10 | > 1000 |  |  | mild (although sometimes statistically significant) suppressive effect | logD ([2]; shake-flask): −0.89 ± 0.11; logP ([2]; shake-flask): −1.01 ± 0.01; pKa1 [4]: 6.08 ± 0.08
2 | NC(=O)[C@@H]1CC[C@H](C(=O)O)N1 [Compound 4] | > 1000 | > 1000 | >−2.20 | 4.9 | 3.17 ± 0.09 |  | >−2.20 | > 1000 | -2.82 ± 0.22 | -2.89 ± 0.16 | mild (although sometimes statistically significant) suppressive effect | pKa ([4]; read-out: pKa2): 7.8 ± 0.11
3 | COc1ccc(CN2CCNC2=N)cc1OC [Compound 5] |  |  |  |  |  |  |  |  | -1.78 ± 0.08 | -1.79 ± 0.04 | no effect | logSH2O ([1]; 30 s): >−3.36; logSpH 7.4 ([1]; 30 s, pH 7.4): >−3.36; solubility kinetic at 30 s ([1]; pH 7.4, aqueous buffer): > 160 µg/mL; solubility kinetic at 30 s ([1]; water): > 160 µg/mL; MPO (CNS MPO score) ([3]; experimental pKa unknown: calculated with T0(pKa) equal to zero): 4.5^a; selectivity for senescent versus proliferating cells [5]: mild but selective effect
4 | CO[C@H]1C[C@@H]2CC[C@@H](C)[C@@](O)(O2)C(=O)C(=O)N2CCCC[C@H]2C(=O)O[C@H]([C@H](C)C[C@@H]2CC[C@@H](O)[C@H](OC)C2)CC(=O)[C@H](C)/C=C(\C)[C@@H](O)[C@@H](OC)C(=O)[C@H](C)C[C@H](C)/C=C/C=C/C=C/1C [Rapamycin, rapamycin] | < 6 | < 6 | <−5.18 | 0.7 | 10.7 ± 0.21 |  | <−5.18 |  | 4.63 ± 0.04 | 3.97 ± 0.03 |  | logSpH 7.4 ([1]; buffer pH 7.4, listed as rapamycin): < −4.60; Sol. (buffer 7.4) [1, 10]: lower than 6 μg/mL; Sol. (H2O) ([1]; ultrapure water, nephelometry): lower than 6 μg/mL; logSH2O ([1]; water, listed as rapamycin): < −4.60

Now from value to compound, other results behind:

Row | solubility kinetic at 30 s [1, 6] [µg/mL] | solubility kinetic at 30 s [1, 7] [µg/mL] | logSH2O ([1]; water) | MPO (CNS MPO score) [3, 8] | pKa ([4]; read-out: pKa1) | melting point [°C] | logSpH 7.4 ([1]; buffer pH 7.4) | solubility at 30 s [1] [µg/mL] | logD [2, 9] | logP ([2]; shake-flask, read-out: logP) | Compound | effect on the readout of crystal violet and resazurin assays (BJ, RPE-1 and U373 cells) | further results
5 | > 160 | 33.3 (≈ 154 µM) | −3.81 | 5.2 | 6.18 ± 0.04 | 227 to 229 |  |  |  |  | c1ccc2[nH]c(NC3CCNCC3)nc2c1 [Compound 1, N-(piperidine-4-yl)-1H-benzo[d]imidazol-2-amine] | mild (although sometimes statistically significant) suppressive effect | logD ([2]; shake-flask): 0.85 ± 0.03; logP ([2]; shake-flask): 1.86 ± 0.07
6 | < 6 | < 6 | <−4.60 | 5 | 4.8 ± 0.06 | 104 to 106 | <−4.60 |  | 2.91 ± 0.01 | 2.86 ± 0.01 | CN(C)c1cccc(-c2cccc(C(N)=O)c2)c1 [Compound 6, 3’-(Dimethylamino)-[1,1’-biphenyl]-3-carboxamide] | mild (although sometimes statistically significant) suppressive effect | Sol. (buffer 7.4) [1, 10]: lower than 6 μg/mL; Sol. (H2O) ([1]; ultrapure water, nephelometry): lower than 6 μg/mL
7 | > 1000 | 789 (≈ 1780 µM) | −2.75 |  |  |  | >−2.65 | > 1000 | 1.52 ± 0.01 | 1.48 ± 0.03 | O=C(O[C@@H]1Cc2c(O)cc(O)cc2O[C@@H]1c1ccc(O)c(O)c1)c1cc(O)c(O)c(O)c1 [Compound 7, epicatechin gallate] | mild (although sometimes statistically significant) suppressive effect | effect on cell proliferation (cell confluence, time-lapse) (RPE-1 cells): cytostatic effect; effect on cell proliferation (cell confluence, time-lapse) (U373 cells): cytostatic effect
